{"source": "patent US7273949B2", "about": "“Salts and methods for their preparation” (Halliburton Energy Services, Inc., priority 2005, dated 2007)", "key": {"skeletonema costatum": {"system": "skeletonema costatum", "assay": "Toxicity to algae, ISO 10253 (HOCNF)", "format": "in vivo", "source_text": "(§1) According to still other embodiments described herein, a disulfonate salt of 2,4-pentanedione is provided. According to one such embodiment, the salt comprises 2,4-pentanedione-1,5-sodium disulfonate. According to another such embodiment, a disulfonate salt of 2,4-pentanedione has an environmentally acceptable toxicity. As used herein, the term “environmentally acceptable toxicity” means that, when tested according to procedures that are the same as or equivalent to those set forth by the OSPAR Guidelines for Completing the Harmonised Offshore Chemical Notification Format (HOCNF) (References number: 2003-1) that were in effect on Dec. 31, 2004, the salt is determined to have a toxicity of greater than about 10,000 mg/L for an algae (skeletonema costatum), a crustacean (acartia tonsa), a fish (scopthalmus) and a sediment reworker (corophium volutator). […]\n(§2) In this Example 3, the toxicity results for the skeletonema costatum were determined according to ISO (International Organization for Standardization) 10253, the protocol for which is known to those of ordinary skill in the art, and is also the protocol required under the above-referenced HOCNF Guidelines. The toxicity results for the acartia tonsa were determined according to ISO 14669, the protocol for which is known to those of ordinary skill in the art. […]"}, "acartia tonsa": {"system": "acartia tonsa", "assay": "Toxicity to crustacean, ISO 14669", "format": "in vivo", "source_text": "as §1, §2"}, "[1]": {"assay": "Solubility of the salt compared to the free acid (methanol rinse)", "format": "physicochemical", "source_text": "The neutralized product is then rinsed with a rinsing agent, for example, methanol, to remove other acid by-products, such as hydrochloric and sulfuric acids, and/or mono-sulfonic acids, and/or to remove other salts formed by the neutralization, such as salts of hydrochloric and sulfuric acids, and/or mono-sulfonic acids. It was discovered that […] solvents, such as methanol, would remove the by-product acids and/or salts, while leaving the salt of 2,4-pentanedione-1,5 disulfonic acid primarily undissolved.\nThe neutralized product was then rinsed several times with methanol to remove by-product acids, or any salts formed therefrom, while leaving the 2,4-pentanedione-1,5-sodium disulfonate primarily undissolved. […] The rinsed product was dried in a vacuum oven and filtered through a 300 mesh screen to afford a flowing pale orange/red powder. The resulting powder was 2,4-pentanedione-1,5-sodium disulfonate."}, "corophium volutator": {"system": "corophium volutator", "assay": "Toxicity to sediment reworker, Part B of the OSPAR Protocols", "format": "in vivo", "source_text": "as §1, §2"}, "scopthalmus": {"system": "scopthalmus", "assay": "Toxicity to fish, Part B of the OSPAR Protocols", "format": "in vivo", "source_text": "as §1, §2"}}, "data": [{"smiles": "O=C(CC(=O)CS(=O)(=O)[O-])CS(=O)(=O)[O-].[Na+].[Na+]", "note": "[2,4-pentanedione-1,5-sodium disulfonate]", "values": [{"measurement": "toxicity (amount required to kill or incapacitate half the test population)", "setting": "skeletonema costatum", "value": "greater than 10,000 mg/L"}, {"measurement": "toxicity (amount required to kill or incapacitate half the test population)", "setting": "acartia tonsa", "value": "greater than 10,000 mg/L"}, {"measurement": "solubility compared to the 2,4-pentanedione-1,5-disulfonic free acid", "setting": "[1]", "value": "significantly less soluble"}, {"measurement": "toxicity (amount required to kill or incapacitate half the test population)", "setting": "corophium volutator", "value": "greater than 10,000 mg/L"}, {"measurement": "toxicity (amount required to kill or incapacitate half the test population)", "setting": "scopthalmus", "value": "greater than 10,000 mg/L"}]}]}
